Measured values reported in patent publication US20130184272A1, “DIABETES THERAPEUTIC AGENT” (TAKEDA PHARMACEUTICAL COMPANY LIMITED, priority 2010, published 2013).

Assays:
[1] = system: Mouse-derived myoblast line C2C12 cell; test: Cell differentiation promoting activity in myoblast (creatine kinase activity); type: cell-based; details: 2 days, without compound = 100%; for activity at 1 µM / activity at 0.01 µM / activity at 10 µM: Mus musculus, C2C12, 48 h, read-out: creatine kinase activating action (%); for activity at 0.01 µM: compound at 0.01 μM (**); for activity at 10 µM: compound at 10 μM (*)
Protocol: • (1) Mouse-derived myoblast line C2C12 cell (Dainippon Pharmaceutical Co., Ltd.) was subcultured in a high glucose Eagle's modified Dulbecco's medium (GIBCO) added with 10% calf fetal bovine serum (GIBCO), 100 unit/mL penicillin and 100 μg/mL streptomycin (hereinafter to be referred to as a growth medium), plated at 5000 cells/cm^2 and cultured at 37° C., under 5% CO2. • (2) When the cells reached subconfluence of not less than 90%, the medium was exchanged with high glucose Eagle's modified Dulbecco's medium (GIBCO) added with (i) 2% horse serum (GIBCO) and (ii) penicillin, streptomycin and a test compound (hereinafter to be referred to as a differentiation medium) and the cells were cultured for 2 days. To the control group was added DMSO solution instead of the test compound. • (3) The cells were washed with PBS, 0.5% NP-40 solution was added, and the cells were lysed by freeze-thawing. The cell extract was centrifuged and the creatine kinase activity in the supernatant was measured as an index of muscle differentiation. The creatine kinase activity was measured using CPKII Test Wako (Wako Pure Chemical Industries, Ltd.) according to the manual of the kit.
The numerical values in Table 1 show creatine kinase activity of the compound addition group when the creatine kinase activity without addition of the compound is 100%, and * means measurement with addition of the compound at 10 μM, ** at 0.01 μM, and others at 1 μM.

C2C12 cell = test: Sugar metabolism promoting activity in muscle cell (lactic acid production); type: cell-based, Mouse; details: compound 1 μM, 2 days, C2C12 myotubes, without drug = 100%; for activity at 1 µM: Mus musculus, 48 h, read-out: lactic acid production promoting action (%)
Protocol: • (1) In the same manner as in Example 1, C2C12 cell was cultured in a growth medium. After reaching subconfluence of not less than 90%, the medium was exchanged with a differentiation medium and the cells were cultured for about 7 days while exchanging the medium every 2 or 3 days until the cells differentiated to form a myotube. • (2) After confirmation of myotube formation under a microscope, the test compound (1 μM) was added to a differentiation medium and cultured for 2 days. The cells were washed with Krebs-Ringer HEPES phosphate buffer (10 mM HEPES, pH 7.4, 131 mM NaCl, 4.7 mM KCl, 2.5 mM CaCl2—2H2O, 1.2 mM MgSO4—7H2O, 1.2 mM KH2PO4), the medium was exchanged with Krebs-Ringer HEPES phosphate buffer added with 5 mM glucose, 0.2% fatty acid-free bovine serum albumin, and cultured at 37° C. for 4 hr. • (3) The lactic acid concentration of the culture supernatant was measured using Detarminer LA kit (Kyowa Medex Co., Ltd.).
The numerical values in Table 2 show the concentration of the compound addition group with the concentration of lactic acid without addition of a drug as 100%.

SMILES	activity at 1 µM ([1]; compound at 1 μM)	activity at 1 µM (C2C12 cell)	activity at 0.01 µM [1]	further results
CCCOc1sc(C(N)=O)c2c1-c1c(cnn1C)CC2 [Ref. Ex. 3, 1-methyl-8-propoxy-4,5-dihydro-1H-thieno[3,4-g]indazole-6-carboxamide]	179%	170%		
COCCOc1sc(C(N)=O)c2c1-c1c(cnn1C)CC2 [Ref. Ex. 4, 8-(2-methoxyethoxy)-1-methyl-4,5-dihydro-1H-thieno[3,4-g]indazole-6-carboxamide]	138%	239%		
Cn1ncc2c1-c1c(OCc3ccncc3)sc(C(N)=O)c1CC2 [Ref. Ex. 5, 1-methyl-8-(pyridin-4-ylmethoxy)-4,5-dihydro-1H-thieno[3,4-g]indazole-6-carboxamide]	113%	124%		
CNC(=O)c1sc(Oc2ccccc2)c2c1CCc1cnn(C)c1-2 [Ref. Ex. 6, N,1-dimethyl-8-phenoxy-4,5-dihydro-1H-thieno[3,4-g]indazole-6-carboxamide]	164%	187%		
Cn1ncc2c1-c1c(Oc3ccc(OCc4ccc5ccccc5n4)cc3)sc(C(N)=O)c1CC2 [Ref. Ex. 10, 1-methyl-8-[4-(quinolin-2-ylmethoxy)phenoxy]-4,5-dihydro-1H-thieno[3,4-g]indazole-6-carboxamide]		259%	193%	
CCCSc1sc(C(N)=O)c2c1-c1c(cnn1C)CC2 [Ref. Ex. 11, 1-methyl-8-(propylsulfanyl)-4,5-dihydro-1H-thieno[3,4-g]indazole-6-carboxamide]	198%	239%		
Cn1ncc2c1-c1c(Nc3ccccc3)sc(C(N)=O)c1CC2 [Ref. Ex. 12, 1-methyl-8-(phenylamino)-4,5-dihydro-1H-thieno[3,4-g]indazole-6-carboxamide]				activity at 10 µM [1]: 162%
CCCS(=O)(=O)c1sc(C(N)=O)c2c1-c1c(cnn1C)CC2 [Ref. Ex. 13, 1-methyl-8-(propylsulfonyl)-4,5-dihydro-1H-thieno[3,4-g]indazole-6-carboxamide]		154%		activity at 10 µM [1]: 128%
CCCCc1sc(C(N)=O)c2c1-c1c(cnn1C)CC2 [Ref. Ex. 14, 8-butyl-1-methyl-4,5-dihydro-1H-thieno[3,4-g]indazole-6-carboxamide]	151%	265%		
Cn1ncc2c1-c1c(Cc3ccccc3)sc(C(N)=O)c1CC2 [Ref. Ex. 16, 8-benzyl-1-methyl-4,5-dihydro-1H-thieno[3,4-g]indazole-6-carboxamide]		194%	150%	
Cn1ncc2c1-c1c(OC3CCCC3)sc(C(N)=O)c1CC2 [Ref. Ex. 17, 8-(cyclopentyloxy)-1-methyl-4,5-dihydro-1H-thieno[3,4-g]indazole-6-carboxamide]	177%	141%		
Cn1ncc2c1-c1c(Oc3ccc4ncccc4c3)sc(C(N)=O)c1CC2 [Ref. Ex. 18, 1-methyl-8-(quinolin-6-yloxy)-4,5-dihydro-1H-thieno[3,4-g]indazole-6-carboxamide]		220%	160%	
Cn1ncc2c1-c1c(Oc3ccc(S(C)(=O)=O)cc3)sc(C(N)=O)c1CC2 [Ref. Ex. 19, 1-methyl-8-[4-(methylsulfonyl)phenoxy]-4,5-dihydro-1H-thieno[3,4-g]indazole-6-carboxamide]	183%	209%		
NC(=O)c1sc(Oc2ccccc2)c2c1CCc1cn[nH]c1-2 [Ref. Ex. 20, 8-phenoxy-4,5-dihydro-1H-thieno[3,4-g]indazole-6-carboxamide]	121%	167%		
COc1cccc(Oc2sc(C(N)=O)c3c2-c2c(cnn2C)CC3)c1 [Ref. Ex. 21, 8-(3-methoxyphenoxy)-1-methyl-4,5-dihydro-1H-thieno[3,4-g]indazole-6-carboxamide]		184%	198%	
Cn1ncc2c1-c1c(Oc3ccc(OCc4ccncc4)cc3)sc(C(N)=O)c1CC2 [Ref. Ex. 23, 1-methyl-8-[4-(pyridin-4-ylmethoxy)phenoxy]-4,5-dihydro-1H-thieno[3,4-g]indazole-6-carboxamide]		252%	191%	
Cn1ncc2c1-c1c(Oc3ccc(CC(=O)O)cc3)sc(C(N)=O)c1CC2 [Ref. Ex. 24, {4-[(6-carbamoyl-1-methyl-4,5-dihydro-1H-thieno[3,4-g]indazol-8-yl)oxy]phenyl}acetic acid]	142%	126%		
Cn1ncc2c1-c1c(Oc3ccc(C[C@H](N)C(=O)N4CCOCC4)cc3)sc(C(N)=O)c1CC2 [Ref. Ex. 25, 8-{4-[(2S)-2-amino-3-morpholin-4-yl-3-oxopropyl]phenoxy}-1-methyl-4,5-dihydro-1H-thieno[3,4-g]indazole-6-carboxamide]	180%	235%		
CN(C)c1cccc(Oc2sc(C(N)=O)c3c2-c2c(cnn2C)CC3)c1 [Ref. Ex. 26, 8-[3-(dimethylamino)phenoxy]-1-methyl-4,5-dihydro-1H-thieno[3,4-g]indazole-6-carboxamide]	156%	175%		
Cn1ncc2c1-c1c(Oc3ccc(OCc4ccccn4)cc3)sc(C(N)=O)c1CC2 [Ref. Ex. 27, 1-methyl-8-[4-(pyridin-2-ylmethoxy)phenoxy]-4,5-dihydro-1H-thieno[3,4-g]indazole-6-carboxamide]		198%	163%	
Cn1ncc2c1-c1c(Oc3ccc4c(c3)OCO4)sc(C(=O)NCc3ccncc3)c1CC2 [Ref. Ex. 28, 8-(1,3-benzodioxol-5-yloxy)-1-methyl-N-(pyridin-4-ylmethyl)-4,5-dihydro-1H-thieno[3,4-g]indazole-6-carboxamide]	186%	170%		
Cn1ncc2c1-c1c(Oc3ccc4c(c3)OCO4)sc(C(N)=O)c1CC2(C)C [Ref. Ex. 29, 8-(1,3-benzodioxol-5-yloxy)-1,4,4-trimethyl-4,5-dihydro-1H-thieno[3,4-g]indazole-6-carboxamide]	183%	264%		
Cn1ncc2c1-c1c(Oc3cnc4ccccc4c3)sc(C(N)=O)c1CC2 [Ref. Ex. 30, 1-methyl-8-(quinolin-3-yloxy)-4,5-dihydro-1H-thieno[3,4-g]indazole-6-carboxamide]		260%	166%	
Cc1ccc(Oc2sc(C(N)=O)c3c2-c2c(cnn2C)CC3)cn1 [Ref. Ex. 31, 1-methyl-8-[(6-methylpyridin-3-yl)oxy]-4,5-dihydro-1H-thieno[3,4-g]indazole-6-carboxamide]		253%	150%	
Cn1ncc2c1-c1c(Oc3cccnc3N)sc(C(N)=O)c1CC2 [Ref. Ex. 32, 8-[(2-aminopyridin-3-yl)oxy]-1-methyl-4,5-dihydro-1H-thieno[3,4-g]indazole-6-carboxamide]	101%	295%		
Cn1ncc2c1-c1c(Oc3ccc[n+]([O-])c3)sc(C(N)=O)c1CC2 [Ref. Ex. 33, 1-methyl-8-[(1-oxidepyridin-3-yl)oxy]-4,5-dihydro-1H-thieno[3,4-g]indazole-6-carboxamide]				creatine kinase activating action (%) ([1]; compound at 1 μM): 156%; lactic acid production promoting action (%) (C2C12 cell): 155%
